Data from patent publication US7425548B2, “Materials and methods for immune system stimulation” (Variety Chidren's Hospital, priority 2004, dated 2008).
Where “and” joins values, the source holds several entries; their conditions need not be identical. Identical values can stand only once.

How the values were obtained:
[1] = tested on: normal lymphocytes (NK, T and B cells); experiment: Activation of lymphocyte subsets, flow cytometry (CD69); assay type: cell-based, human
Description: Normal lymphocytes were treated with RR1 (0-100 μg/ml) for 24 hours at 37° C. in a CO2 incubator. The cells were stained with a panel of cell specific antibodies conjugated with different fluorochromes: CD3-FITC, CD16/56-PE, CD19-ECD, CD69-PC5 or CD8-FITC, CD4-PE, CD3-ECD, CD69-ECD. The stained cells were analyzed in a Coulter Elite flow cytometer in a 4-color assay. ***p<0.001.
Activation of Lymphocytes. Normal lymphocytes (10^6/ml) were treated with 0-100 μg of RR1 for 24 hours in a CO2 incubator maintained at 37° C. in RPMI medium. The cells were then stained with specific fluorochrome-conjugated monoclonal antibodies for 30 minutes at room temperature and analyzed in a Coulter Elite Flow Cytometer by four and five color immunotyping assay protocol of Alamo and Melnick (Alamo, A. L. and S. J. Melnick Cytometry, 2000, 42:363-370) and the percentage of activation of subsets of lymphocytes such as NK, T and B cells were calculated.

[2] = tested on: HEK293 cells transfected with TLR6; experiment: TLR signaling, IL-8 ELISA; assay type: cell-based, human; details: HEK/TLR6, RR1 0-100 μg/ml, 24 hours
Description: HEK293/TLR6 cells (1×10^6) were treated with RR1 (0, 10, 50, and 100 μg/ml) at 37° C. for 24 hours and secreted IL-8 in the medium was analyzed by ELISA protocol.
TLR signaling. To determine the involvement of TLR signaling, parental HEK293 as well as HEK293 cells transfected with human TLR2, TLR6, TLR2/6 or TLR4/CD14/MD2 genes (cloned into pDUO plasmid), were used. These cells (0.5×10^6/ml) were incubated with 0-100 μg/ml of RR1 for 24 hours. Since these cells produce very low level of TNF-α and detectable levels of IL-8 upon activation, IL-8 secreted into the medium was analyzed using ELISA procedure. Incidentally, the IL-8 synthesis is also under the control of the transcription factor NF-κB.

[3] = tested on: monocytes isolated from peripheral blood mononuclear cells; experiment: NO synthesis in monocytes; assay type: cell-based
Text: (§1) NO levels are also reported to play an important role in the modulation of Th cell differentiation and polarization. Yamasaki et al. (Yamasaki, A. et al. Yonago Acta Medica, 1998, 44:7-15) and Taylor-Robinson et al. (Taylor-Robinson, A. W. et al. Eur. J. Immunol., 1994, 24:980-984) reported an inhibitory role of NO on Th1 cytokines while Bauer et al. (Bauer, H. et al., Immunol, 1997, 90:205-211) reported the same for Th1 as well as Th2 cytokines by NO from activated T cells. […] The enzyme iNOS produced a high output of NO from macrophages upon stimulation. […] The absence of iNOS induction by RR1 supports the conclusion that there is an insignificant increase in the production of NO. […] IFN-α, IFN-γ and TNF-α are known up-regulators of NO synthesis (Shin, J. Y. et al. Immunopharmcol. Immunotoxicol., 2002, 24:469-482; Hirazumi, A. and Furusawa, E. Phytother Res., 1999, 13:380-387).

[4] = tested on: NF-κB in RAW264.7 macrophages; experiment: NF-κB DNA binding activity of nuclear extracts (ELISA, EMSA); assay type: cell-based, mouse
Description: The macrophages were treated with 100 μg/ml of RR1 and NF-κB activity of the nuclear extracts analyzed at 2, 4, 8, 14, and 20 hours after incubation using ELISA protocol.
NF-κB activity increased with escalating doses of RR1, reaching a plateau at 500 μg/ml.
NF-κB activity. RAW264.7 cells were incubated with 0, 100, 500 and 1000 μg/ml of RR1 for 8 hours and the nuclear proteins were extracted using the NF-κB activity kit from Active Motif, CA according to manufacturer's ELISA instructions. To visualize the NF-κB activation further, Electrophoretic Mobility Shift Assay (EMSA) was performed (Ghosh, S, and Karin, M., Cell, 2002, 109:S81-96; Young, S. H. et al. J. Biol Chem., 2001, 276:20781-20787; Lebron, F. et al. J Biol Chem., 2003, 278:25001-25008) with the nuclear protein. A double stranded probe that binds NF-κB (5′-[…]-3′, SANTA CRUZ BIOTECHNOLOGY, Santa Cruz, Calif.) was radio labeled with ^32P-ATP, and EMSA performed with 5 μg of nuclear extract. The EMSA reaction mixtures were incubated for 30 minutes at room temperature, and DNA-protein complexes were separated on 6% polyacrylamide gels and visualized by autoradiography. […] The nuclear extracts were analyzed for the protein content, and NF-κB activity analyzed using ELISA kit from ACTIVE MOTIF, Carlsbad, Calif.

[5] = tested on: human monocyte cell line THP-1; experiment: NO synthesis in monocyte cell line; assay type: cell-based
Text: as §1

[6] = molecular target: T1, CR3 (CD11b) on RAW 264.7 macrophages (Mus musculus, UniProt P05555); experiment: Blocking of CR3 with CD11b mAb, glucan-induced TNF-α synthesis; assay type: cell-based; details: anti-CD11b mAb 5 μg/ml, 37° C.
T1 construct: endogenous in cells; host or cells: RAW 264.7 mouse macrophages (ATCC)
T1 sequence (P05555 17-1153): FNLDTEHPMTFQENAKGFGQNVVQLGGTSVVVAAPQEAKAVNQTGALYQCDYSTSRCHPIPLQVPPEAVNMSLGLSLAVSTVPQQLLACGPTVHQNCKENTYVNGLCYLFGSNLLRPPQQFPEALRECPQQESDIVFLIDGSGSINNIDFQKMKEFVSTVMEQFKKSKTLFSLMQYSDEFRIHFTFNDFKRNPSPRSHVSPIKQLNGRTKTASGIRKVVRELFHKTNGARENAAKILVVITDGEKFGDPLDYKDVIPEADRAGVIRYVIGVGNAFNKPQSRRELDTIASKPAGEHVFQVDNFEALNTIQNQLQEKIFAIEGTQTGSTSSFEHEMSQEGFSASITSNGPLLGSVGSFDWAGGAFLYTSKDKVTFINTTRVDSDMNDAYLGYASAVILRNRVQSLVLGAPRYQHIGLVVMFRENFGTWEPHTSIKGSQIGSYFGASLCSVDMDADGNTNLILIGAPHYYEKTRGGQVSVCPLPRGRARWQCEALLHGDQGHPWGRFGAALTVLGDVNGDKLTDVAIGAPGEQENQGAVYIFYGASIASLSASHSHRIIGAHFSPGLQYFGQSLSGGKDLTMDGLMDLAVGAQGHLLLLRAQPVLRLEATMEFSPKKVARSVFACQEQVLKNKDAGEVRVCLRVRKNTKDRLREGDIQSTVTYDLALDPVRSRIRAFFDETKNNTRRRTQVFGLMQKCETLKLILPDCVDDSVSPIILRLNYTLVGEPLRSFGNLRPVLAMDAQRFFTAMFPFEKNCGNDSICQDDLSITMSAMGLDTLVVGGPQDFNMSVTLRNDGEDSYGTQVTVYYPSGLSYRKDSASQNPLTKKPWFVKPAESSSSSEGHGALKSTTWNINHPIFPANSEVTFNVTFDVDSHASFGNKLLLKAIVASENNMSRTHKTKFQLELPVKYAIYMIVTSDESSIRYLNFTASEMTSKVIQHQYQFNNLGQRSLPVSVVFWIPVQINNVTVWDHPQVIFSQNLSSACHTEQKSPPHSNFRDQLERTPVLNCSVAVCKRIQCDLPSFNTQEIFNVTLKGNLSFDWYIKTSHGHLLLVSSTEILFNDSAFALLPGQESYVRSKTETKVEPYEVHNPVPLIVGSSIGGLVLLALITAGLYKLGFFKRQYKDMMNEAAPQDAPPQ
T1 sequence (P11835 24-771 partner): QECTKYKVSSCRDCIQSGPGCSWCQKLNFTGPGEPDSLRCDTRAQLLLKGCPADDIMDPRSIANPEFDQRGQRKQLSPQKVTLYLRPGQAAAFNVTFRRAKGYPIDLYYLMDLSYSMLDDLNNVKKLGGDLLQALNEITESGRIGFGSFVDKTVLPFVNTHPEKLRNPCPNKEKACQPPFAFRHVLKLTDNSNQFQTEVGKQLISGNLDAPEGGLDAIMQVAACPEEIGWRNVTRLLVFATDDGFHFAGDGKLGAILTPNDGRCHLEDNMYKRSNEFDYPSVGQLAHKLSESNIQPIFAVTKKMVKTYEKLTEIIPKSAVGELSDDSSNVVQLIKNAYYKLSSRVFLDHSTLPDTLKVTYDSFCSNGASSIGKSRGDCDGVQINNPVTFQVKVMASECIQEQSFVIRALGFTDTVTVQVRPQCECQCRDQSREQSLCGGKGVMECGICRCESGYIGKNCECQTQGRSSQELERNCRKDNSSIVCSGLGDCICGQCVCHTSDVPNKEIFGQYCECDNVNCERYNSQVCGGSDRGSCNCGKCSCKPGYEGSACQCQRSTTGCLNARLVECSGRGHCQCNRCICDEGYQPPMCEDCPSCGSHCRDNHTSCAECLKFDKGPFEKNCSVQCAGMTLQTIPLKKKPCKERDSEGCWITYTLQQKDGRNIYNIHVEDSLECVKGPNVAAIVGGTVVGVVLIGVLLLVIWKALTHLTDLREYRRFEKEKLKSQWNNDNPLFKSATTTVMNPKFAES
Description: Effect Blocking of CR3 with CD11b mAb on opsonised binding. To examine whether the glucan specific receptors CR3 is involved in the opsonised recognition/binding of RR1 on macrophages, monoclonal antibodies (mAbs) specific for CR3 (Rat antimouse CD11b from BD BIOSCIENCES, San Jose, Calif.) were used for blocking the CR3. […] TNF-α released by the macrophages into the medium was analyzed by ELISA kit (BD Biosciences, San Jose, Calif.) (Brown, G. D. et al. J. Expt. Med., 2002, 196:407-412; Brown, G. D. et al. J. Exp. Med., 2003, 197:1119-1124).

time of stimulation at which NF-κB activity peaked ([4]; 100 μg/ml RR1, ELISA): 8 h
RR1 dose at which NF-κB activity reaches a plateau ([4]; 8 hours of stimulation): 500 to 1000 µg/mL and 500 µg/mL
% reduction of secreted TNF-α ([6]; then glucan 100 μg/ml): 4.25 ± 3.66%
% reduction of secreted TNF-α ([6]; then glucan 500 μg/ml): 1.89 ± 0.50%
Substance: (1,4)-α-D-glucan [RR1]
fold activation of NK cells ([1]; 100 μg/ml RR1): > 3 fold
activation of B cells ([1]; 100 μg/ml RR1, 24 hours): 39%
activation of NK cells ([1]; 100 μg/ml RR1, 24 hours): 331%
activation of T cells ([1]; 100 μg/ml RR1, 24 hours): 102%
IL-8 production [2]: copious induction of IL-8
NO levels with RR1 treatment [3]: did not induce any higher levels of NO
NO levels with RR1 treatment [5]: did not induce any higher levels of NO
